Experimental data reported in patent publication US20260137678A1, “METHODS FOR TREATING OR PREVENTING NEUROENDOCRINE TUMOR FORMATION USING XPO1 INHIBITORS” (priority 2022, published 2026).

Columns and labels:
SOX2 = SOX2 mRNA and protein expression in selinexor-treated isogenic cell lines; assay type: cell-based; conditions: H1563, 22PC and LnCap cell lines, selinexor 5 nM for 4 days
Description: FIGS. 6A-6J: Exportin 1 inhibition downregulates SOX2 expression, hindering the acquisition of NE features. Pathway enrichment analysis on DEGs from enzalutamide versus control (FIG. 6A) and combo versus enzalutamide (FIG. 6B) conditions in the transcriptomic data from TP53/RB1 DKO 22PC xenografts treated in vivo and collected at control arm experimental endpoint (day 31). Categorized pathways of interest, previously involved in NE transformation^5,6, are shown. FIG. 6C: SOX2 mRNA expression in tumors divided by treatment condition. mRNA expression values are shown as TPM (n=4, 3, 3 and 3 tumors for the control, enzalutamide-, selinexor- and combo-treated tumors). […] Mice weights and tumor volumes were measured twice a week and mice were sacrificed when tumors reached humane endpoint (volume=1000 mm^3). […] For western blots and mRNA plots, representative images are shown. p-values were calculated using the Student's t-test (unpaired, heterogeneous variances, two-tailed). p-value legend: *<0.05, **<0.01, ***<0.001. […]
Protein extraction and western blot were performed as previously described^24 from frozen cell pellets or flash-frozen tumor samples using RIPA lysis buffer with 1×HALT protease inhibitor cocktail (Thermo, #78446). […] Quantifications were performed with the Image Studio software (Version 3.1, Li-Cor). […]

[1] = test system: TP53/RB1-inactivated 22PC and H1563 cell lines; test: Cell cycle assay by flow cytometry; assay type: cell-based; conditions: 4 days, even at substantially cytotoxic concentrations of selinexor
Method: FIGS. 8D-8E: Proliferation assays were performed in TP53/RB1-inactivated 22PC and H 1563 cell lines and the cell cycle profile was assessed in those being treated with selinexor. […] Cell cycle was studied by flow cytometry. Cells were seeded in 6-well plates and treated for 4 days with selinexor at the indicated doses. At day 4, cells were washed with PBS (Lonza) and fixed in 70% ethanol for a maximum period of 1 week at 4° C. Next, cells were washed twice with PBS (Lonza) and incubated with FxCycle PI/RNAse Staining solution (Invitrogen) for 1 h at RT. Cell cycle was determined using a BD LSRFortessa cell analyzer (BD Bioscience) and cell cycle phases were determined using FlowJo® software v10.

Lx1042 (T-SCLC) PDX = test: In vivo treatment of PDX, tumor growth and tumor western blots; set-up: species or system mice; conditions: tumors from in vivo treatment; selinexor added to cisplatin
LuCAP49 (NEPC) PDX = test: as above; set-up: species or system mice; conditions: tumors from in vivo treatment; selinexor added to cisplatin

For O=C(/C=C\n1cnc(-c2cc(C(F)(F)F)cc(C(F)(F)F)c2)n1)NNc1cnccn1 [selinexor], the “induction of SOX2 mRNA and protein by TP53/RB1 inactivation” value (SOX2) was “prevented”, the cell cycle profile [1] was “no significant shifts in cell cycle profile” and the “activation of the AKT pathway in tumors (western blot)” value (Lx1042 (T-SCLC) PDX) was “suppressed”. The “activation of the AKT pathway in tumors (western blot)” value (LuCAP49 (NEPC) PDX) was “suppressed”.
